Data as given in patent US20260191925A2, “TISSUE OCCLUDING AGENT COMPRISING AN IEIKIEIKIEIKI PEPTIDE” (3-D Matrix, Ltd., priority 2008, published 2026).
Entries after “also recorded” stand apart in the source; their conditions may differ. No end group written: not given here.

Columns and labels:
[1] = system: rabbit hepatic incision; test: Rabbit hepatic transection model (Example 9); format: in vivo; settings: 1% solution, 1 minute after treatment, after rinsing with physiological saline
Description: (§1) The rabbits were subcutaneously administered (3 mg/kg) Celactar 2% injection (2.0 g content as xylazine in 100 mL, product of Bayer Ltd.), and then ketamine (50 mg content as ketamine in 1 mL, product of Fuji Chemical Industries, Ltd.) was intravenously administered (10 mg/kg) for anesthesia.
The rabbits were laparotomized by median section and the hepatic left lobes were exposed and sharply transected with a scalpel to about 1 cm to induce hemorrhage.
After confirming exudative hemorrhage from the incision, the blood was removed as much as possible with gauze and the hepatic incision was treated with aqueous peptide solution.
The gelled aqueous peptide solution was removed 1 minute after treatment using physiological saline, and the presence of any hemorrhage from the hepatic incision was visually confirmed.

[2] = Self-assembly of aqueous peptide solution with rabbit bile (Example 10); format: physicochemical; settings: covered with rabbit bile, approximately 30 seconds
Description: as §1
The rabbits were laparotomized by median section, and bile was sampled from the gallbladder using a 23 G injection needle (Terumo Corp.).
Droplets of each aqueous peptide solution before self-assembly were prepared (diameter: approximately 5-8 mm), and the sampled bile was gently poured thereover so as to cover the aqueous peptide solution.

[3] = system: rabbit portal vein stem; test: Rabbit portal vein stem injection needle perforation model, sugar-containing solutions (Example 4); format: in vivo
Description: as §1
(§2) The rabbits were laparotomized by median section. Approximately 10 cm of the abdominal aorta and portal vein stem was exposed, each blood vessel was ablated from the surrounding tissue, and the abdominal aorta was punctured with a 26 G, 25 G or 23 G injection needle (Terumo Corp.) while the portal vein stem was punctured with a 26 G injection needle (Terumo Corp.).
(§3) After 1-2 minutes of treatment, blood flow was released and the presence of hemorrhage was visually examined.

[4] = system: rabbit gastric mucosa incision; test: Rabbit gastric mucosa incision model (Example 8); format: in vivo; settings: 1 minute after treatment, after rinsing with physiological saline
Description: as §1
The rabbits were laparotomized by median section and the stomachs were incised, after which the gastric mucosa was exposed and sharply incised with a scalpel to about 1 cm to induce hemorrhage.
After confirming blood oozing from the incision, the blood was removed as much as possible with gauze and the gastric mucosa incision was treated with aqueous peptide solution.
The gelled aqueous peptide solution was removed 1 minute after treatment using physiological saline, and the presence of any hemorrhage from the gastric mucosa incision was visually confirmed.

[5] = system: rabbit abdominal aorta; test: Rabbit abdominal aorta injection needle perforation model (Example 1); format: in vivo; settings: for hemostatic effect (hemorrhage visually examined): after release of clamp
Description: as §1
(§4) The rabbits were laparotomized by median section. Approximately 10 cm of the abdominal aorta and portal vein stem was exposed, each blood vessel was ablated from the surrounding tissue, and the abdominal aorta was punctured with a 23 G injection needle (Terumo Corp.) while the portal vein stem was punctured with a 26 G injection needle (Terumo Corp.).
(§5) Upon confirming hemorrhage, blood flow at the peripheral end and central end was clamped with a hemostatic clamp, and after removing the hemorrhaged blood with physiological saline and gauze, it was immediately treated with the aqueous peptide solution.
(§6) After 1-2 minutes of treatment, blood flow was released and the presence of hemorrhage from the puncture site was visually examined.

[6] = system: rabbit portal vein stem; test: Rabbit portal vein stem injection needle perforation model (Example 1); format: in vivo
Description: as §1, §4, §5, §6

[7] = system: resected liver surface; test: Rabbit partial liver resection model (Example 2); format: in vivo; settings: for hemorrhage from cut surface after rinsing with physiological saline: FIG. 2; for rabbits showing complete hemostasis: partial liver resection
Description: as §1
The rabbits were laparotomized by median section, and the hepatic left or right lobe was sharply excised to a size of approximately 5 cm width×3 cm length from the edge using a scalpel, to prepare a liver section.
Blood flow was released 1-2 minutes after treatment, the aqueous peptide solution that was gelled was removed by physiological saline, and the presence of any hemorrhage from the resected liver surface s was visually confirmed.
The resected liver surface in which a hemostatic effect was seen were fixed with 20% formalin and histopathologically evaluated by HE staining.

[8] = system: abdominal aorta of rabbits with reduced blood clotting function; test: Abdominal aorta injection needle perforation model of rabbits with suppressed blood clotting function (heparin) (Example 3); format: in vivo, rabbit; settings: for Observations: heparin 1,000 units
Description: as §1
The rabbits were laparotomized by median section. Approximately 10 cm of the abdominal aorta was exposed, the blood vessel was ablated from the surrounding tissue, and the vessel was punctured with a 26 G, 25 G or 23 G injection needle (Terumo Corp.).
Upon confirming hemorrhage, blood flow at the peripheral end and center end was clamped with a hemostatic clamp, and after removing the hemorrhaged blood with physiological saline and gauze, it was immediately treated with the aqueous peptide solution.
as §3

[9] = system: rabbit abdominal aorta; test: Rabbit abdominal aorta injection needle perforation model, sugar-containing solutions (Example 4); format: in vivo
Description: as §1, §2, §3

[10] = system: rabbit bile duct wall; test: Rabbit bile duct injection needle perforation model (Example 6); format: in vivo; settings: 26 G needle
Description: as §1
The rabbits were laparotomized by median section. Approximately 10 cm of the bile duct was exposed, and after ablation from the surrounding tissue, the bile duct was punctured with a 26 G injection needle.
After confirming discharge of bile and continuous flow of bile, the bile flow was blocked with a hemostatic clamp.
The leaked bile was removed with physiological saline and gauze, and then treated with 3% aqueous peptide solution.
After 2 minutes of treatment, bile flow blockage was released and the presence of bile flow from the puncture site was visually examined.

[11] = system: canine intravesical tumor / vesical mucosa; test: Canine intravesical tumorectomy, submucosal injection (Example 7); format: in vivo, dog
Description: Canine intravesical tumorectomy was carried out under general anesthesia management, by the following procedure.
After hypogastric incision with an electrocautery scalpel (Erbe, Inc.), the electrocautery scalpel was used for incision of the bladder to expose the intravesical tumor (pedunculated tumor with a base site diameter of approximately 0.5 cm that is elevated from the vesical mucosa).
3% Aqueous peptide solution was submucosally injected around the tumor base in 4 injections of 0.5 mL each, and elevation of the tumor on the mucosa was confirmed.
After elevating the tumor, the tumor was excised with an electronic scalpel.
The time from aqueous peptide solution injection to complete tumor excision was approximately 2 minutes.

[12] = system: rat portal vein; test: Rat portal vein embolization (Example 11); format: in vivo; settings: 4 mL injected through portal vein stem, liver extracted after 5 minutes, HE staining
Description: The rats were subjected to inhalation anesthesia with diethyl ether (Kishida Chemical Co., Ltd.).
The rats were laparotomized by median section and the portal veins were exposed.
A 4 mL portion of aqueous peptide solution was injected through the portal vein stem with a 26 G injection needle (Terumo Corp.), and hemorrhage from the puncture site was immediately arrested with aqueous peptide solution.
The livers were extracted 5 minutes after injection and immediately fixed with 10% formalin (Wako Pure Chemical Industries, Ltd.).
The tissue was stained with haematoxylin eosin (HE) 1 week after fixing.

## 1% IEIK9 aqueous peptide solution: 1% aqueous peptide solution, peptide sequence IEIK9 (SEQ ID NO: 4) (Ac-IEIKIEIKI)
[1]
  hemostatic effect (hemorrhage from hepatic incision): hemorrhage observed from incision site
[1]; listed as IEIK9 aqueous peptide solution
  hemostatic effect (hemorrhage from hepatic incision): no hemostatic effect
[2]
  bile-induced self-assembly: virtually no self-assembly seen

## Ac-(IEIK)3I-CONH2 [1% IEIK13 aqueous peptide solution]
[1]
  hemostatic effect (hemorrhage from hepatic incision): no hemorrhage observed from incision site
[1]; listed as IEIK13 aqueous peptide solution
  hemostatic effect (hemorrhage from hepatic incision): no hemorrhage was observed
[2]
  bile-induced self-assembly: self-assembly confirmed

## Ac-(KLDL)3-CONH2 (Ac-KLDLKLDLKLDL-NH2) [1% KLD aqueous peptide solution]
[1]
  hemostatic effect (hemorrhage from hepatic incision): no hemorrhage observed from incision site
[1]; listed as KLD aqueous peptide solution
  hemostatic effect (hemorrhage from hepatic incision): no hemorrhage was observed
[2]
  bile-induced self-assembly: self-assembly confirmed

## Ac-(RADA)4-NH2 (Ac-RADARADARADARADA-NH2) [2% aqueous peptide solution]
[3]; portal vein stem 26 G needle perforation
  hemostatic effect (compared between the solutions): equivalent
[3]; portal vein stem, 26 G needle
  Observation: Complete
[4]
  hemorrhage from gastric mucosa incision: no hemorrhage from incision site

## Ac-(RADA)4-NH2 [1% aqueous peptide solution] (Ac-RADARADARADARADA-NH2)
[5]
  hemostatic effect (hemorrhage visually examined): hemostasis was not complete; also recorded: resumed hemorrhage following declamp
[6]
  hemostatic effect (hemorrhage visually examined): persistent phleborrhagia
[7]
  hemorrhage from cut surface after rinsing with physiological saline: no hemorrhage observed from cut surface
  rabbits showing complete hemostasis: two of two

## Ac-(RADA)4-NH2 [1.5% PuraMatrix aqueous peptide solution]
[2]
  bile-induced self-assembly: self-assembly confirmed

## Ac-(RADA)4-NH2 [3% aqueous peptide solution] (Ac-RADARADARADARADA-NH2)
[5]
  rabbits demonstrating complete hemostasis: two of two
  hemostatic effect (hemorrhage visually examined): completely hemorrhage-arrested blood vessel
[6]
  cases demonstrating complete hemostasis: two of two
[7]
  hemorrhage from cut surface after rinsing with physiological saline: hemorrhage observed from cut surface
  rabbits showing complete hemostasis: 1 of 4
[8]; 23 G needle
  Observations: Complete hemostasis
[8]; 25 G needle
  Observations: Complete hemostasis
[8]; 26 G needle
  Observations: Complete hemostasis
[8]; heparin-treated rabbits, 26 G, 25 G and 23 G needle perforation
  hemostatic effect (hemorrhage visually examined): complete hemostasis; also recorded: perivascular hemorrhage of (b) not seen after declamp
[9]; 23 G needle
  Observation: Complete
[9]; 25 G needle
  Observation: Complete
[9]; 26 G needle
  Observation: Complete
[10]
  Observations: Aqueous peptide solution gelled
  bile duct wall occlusion effect (bile leakage): complete bile duct wall occlusion effect; also recorded: bile leakage of (b) not observed around bile duct
[11]; excision by electrocautery
  hemorrhage at excision site after tumor excision: no hemorrhage at excision site after tumor excision
  hemorrhage at excision site during tumor excision: no hemorrhage at excision site during tumor excision
[11]; submucosal injection, 4 injections of 0.5 mL
  mucosal swelling (elevation) of excision site: swelling of affected area confirmed
[12]
  portal vein embolization: Embolization of portal vein confirmed
